Experimental data as given in ChEMBL document CHEMBL4483862, “Open-source discovery of chemical leads for next-generation chemoprotective antimalarials” (2018).

Test system: Plasmodium berghei
Assay: Luciferase/luciferin-expressing antifolate-resistant parasites were used to infect a culture of HepG2 cells that were pre-incubated with compounds. Infected hepatocytes emit light due to the luciferase reaction. Assay results are presented as the percent inhibition of light emission compared to control. […]
Format: functional
Details: sporozoite; for IC90: read-out: LUCIFERASE INFECTION ASSAY - IC90
[1] = read-out: LUCIFERASE INFECTION ASSAY - IC50

Structure (SMILES) | IC90 | further results
Cn1c2c(cc(-c3ccccc3)c1=O)CN(Cc1cnn(-c3ccc(F)cc3)c1)CC2 | > 7.96 µM | IC50 (HEPG2TOX_HILL_SLOPE 7.96, HEPG2TOX_R_SQUARED 0.425, PBLUC_HILL_SLOPE 14.6, PBLUC_R_SQUARED 0.0729, read-out: LUCIFERASE INFECTION ASSAY - IC50): 7.11 µM
CCOCCSc1nc(-c2ccccc2)c(-c2ccccc2)[nH]1 | > 10 µM | IC50 (HEPG2TOX_HILL_SLOPE 2.32, HEPG2TOX_R_SQUARED 0.811, read-out: LUCIFERASE INFECTION ASSAY - IC50): > 10 µM
CCCNC(=O)c1c(NC(=O)c2ccc(F)cc2F)nc2ccccn12 | 8.71 µM | IC50 (HEPG2TOX_HILL_SLOPE 7.34, HEPG2TOX_R_SQUARED 0.716, PBLUC_HILL_SLOPE 2.53, PBLUC_R_SQUARED 0.731, read-out: LUCIFERASE INFECTION ASSAY - IC50): 3.66 µM
CN(C)c1ccc(C2CC(=O)c3ccccc3N2)cc1 (stereo not drawn) | > 12.4 µM | IC50 [1]: > 12.4 µM
CC12CCC(C(=O)N3CCN(c4cccc(Cl)c4)CC3)(OC1=O)C2(C)C (stereo not drawn) | > 8.76 µM | IC50 (PBLUC_HILL_SLOPE 1.72, PBLUC_R_SQUARED 0.0862, read-out: LUCIFERASE INFECTION ASSAY - IC50): > 8.76 µM
Nc1nnc(SCc2c(F)cccc2Cl)[nH]1 | > 12.8 µM | IC50 [1]: > 12.8 µM
O=C(Cn1cnc2sccc2c1=O)c1ccc(C2CCCCC2)cc1 | > 10 µM | IC50 (HEPG2TOX_HILL_SLOPE 0.627, HEPG2TOX_R_SQUARED 0.608, PBLUC_HILL_SLOPE 1.31, PBLUC_R_SQUARED 0.795, read-out: LUCIFERASE INFECTION ASSAY - IC50): 2.58 µM
Cc1cc2[nH]c(C)cc(=O)n2n1 | > 20.2 µM | IC50 (FFLUC_HILL_SLOPE 10.3, FFLUC_R_SQUARED 0.148, read-out: LUCIFERASE INFECTION ASSAY - IC50): > 20.2 µM
CCOC(=O)c1c(C)noc1/C(C)=N/OC(=O)Nc1cccc(C(F)(F)F)c1 | 3.98 µM | IC50 (FFLUC_HILL_SLOPE 1.36, FFLUC_R_SQUARED 0.14, PBLUC_HILL_SLOPE 8.59, PBLUC_R_SQUARED 0.59, read-out: LUCIFERASE INFECTION ASSAY - IC50): 3.08 µM
CC(C)CCOc1ccc(C(C2C(=O)CC(C)(C)CC2=O)C2C(=O)CC(C)(C)CC2=O)cc1 | > 10 µM | IC50 (FFLUC_HILL_SLOPE 1.63, FFLUC_R_SQUARED 0.537, read-out: LUCIFERASE INFECTION ASSAY - IC50): > 10 µM
COc1ccc(Cl)cc1NC(=O)COC(=O)COc1ccc(/C=C2\SC(=S)N(c3cccc(C(F)(F)F)c3)C2=O)cc1OC | > 10 µM | IC50 (FFLUC_HILL_SLOPE 3.19, FFLUC_R_SQUARED 0.292, read-out: LUCIFERASE INFECTION ASSAY - IC50): > 10 µM
Cc1ccc2nc(NC(=O)c3ccccc3C)c(C(=O)NCC(C)C)n2c1 | 9 µM | IC50 (HEPG2TOX_HILL_SLOPE 2.35, HEPG2TOX_R_SQUARED 0.51, PBLUC_HILL_SLOPE 14.9, PBLUC_R_SQUARED 0.347, read-out: LUCIFERASE INFECTION ASSAY - IC50): 7.76 µM
C=CCN(C(=O)CCc1ccc(S(=O)(=O)N2CCCCCC2)cc1)c1nc2c(s1)CCCC2 | > 10 µM | IC50 (HEPG2TOX_HILL_SLOPE 1.95, HEPG2TOX_R_SQUARED 0.844, PBLUC_HILL_SLOPE 2.62, PBLUC_R_SQUARED 0.304, read-out: LUCIFERASE INFECTION ASSAY - IC50): 8.2 µM
COc1cc(Nc2nc3cnc(-c4cccnc4)cc3n2C)cc(OC)c1OC | > 10 µM | IC50 [1]: 8.65 µM
COc1ccc(Cn2c(C3CC(=O)N(C)C3)nc3ccccc32)cc1 (stereo not drawn) | > 9.84 µM | IC50 (PBLUC_HILL_SLOPE 3.53, PBLUC_R_SQUARED 0.0667, read-out: LUCIFERASE INFECTION ASSAY - IC50): 8.05 µM
CCCc1nc2oc3cc(OC)ccc3c(=O)c2c(=O)n1Cc1ccco1 | > 9.01 µM | IC50 (PBLUC_HILL_SLOPE 1.9, PBLUC_R_SQUARED 0.121, read-out: LUCIFERASE INFECTION ASSAY - IC50): 5.6 µM
O=C(Nc1nc2c(s1)CCCC2)c1ccc(Nc2ccccc2)c([N+](=O)[O-])c1 | > 10 µM | IC50 [1]: > 10 µM
c1ccc(-c2nnc(SCc3cn4ccccc4n3)nc2-c2ccccc2)cc1 | > 10 µM | IC50 [1]: > 10 µM
COc1ccc(NS(=O)(=O)c2ccc3oc(Nc4cc(C)on4)nc3c2)cc1 | 9.75 µM | IC50 (HEPG2TOX_HILL_SLOPE 5.63, HEPG2TOX_R_SQUARED 0.393, PBLUC_HILL_SLOPE 4.89, PBLUC_R_SQUARED 0.566, read-out: LUCIFERASE INFECTION ASSAY - IC50): 6.22 µM
Cc1nnsc1-c1onc(C)c1C(=O)NC(=O)Nc1cc(Cl)cc(Cl)c1 | 3.02 µM | IC50 (HEPG2TOX_HILL_SLOPE 1.43, HEPG2TOX_R_SQUARED 0.987, PBLUC_HILL_SLOPE 8.7, PBLUC_R_SQUARED 0.518, read-out: LUCIFERASE INFECTION ASSAY - IC50): 2.34 µM
Cc1nnc(Sc2ncnc3scc(-c4ccccc4)c23)s1 | 6.88 µM | IC50 (HEPG2TOX_HILL_SLOPE 11.3, HEPG2TOX_R_SQUARED 0.507, PBLUC_HILL_SLOPE 5.22, PBLUC_R_SQUARED 0.122, read-out: LUCIFERASE INFECTION ASSAY - IC50): 4.52 µM
Nc1nc(SCc2cc(=O)n3c(n2)sc2ccccc23)nc2sccc12 | > 10 µM | IC50 [1]: > 10 µM
CC(=O)Nc1cccc(-c2cn3c(-c4ccc(Oc5ccccc5)cc4)cnc3cn2)c1 | > 7.85 µM | IC50 (HEPG2TOX_HILL_SLOPE 0.0216, HEPG2TOX_R_SQUARED 0.0103, PBLUC_HILL_SLOPE 2.46, PBLUC_R_SQUARED 0.352, read-out: LUCIFERASE INFECTION ASSAY - IC50): > 7.85 µM
c1ccc(-c2csc3nc(CN4CCCCC4)nc(Sc4nnc(-c5cccnc5)o4)c23)cc1 | 3.67 µM | IC50 (HEPG2TOX_HILL_SLOPE 3.21, 5.75, HEPG2TOX_R_SQUARED 0.957, 0.718, PBLUC_HILL_SLOPE 33.6, 11.3, PBLUC_R_SQUARED 0.628, 0.512, read-out: LUCIFERASE INFECTION ASSAY - IC50): 3.23 µM
